Biological target: T1, human PKCθ full length enzyme (Homo sapiens, UniProt Q04759)
T1 construct: human PKCθ full length enzyme (Panvera Catalog No. P2996); purchased Panvera P2996
Assay: PKCθ IMAP Assay
Assay type: biochemical
Settings: average value when one or more samples were tested; ATP 6 uM, PKCθ 1 nM
Method: The materials used include the following: human PKCθ full length enzyme (Panvera Catalog No. P2996); substrate peptide: 5FAM-[…]-OH (Molecular Devices, RP7032); ATP (Sigma Cat # A2383); DTT (Pierce, 20291); 5× kinase reaction buffer (Molecular Devices, R7209); 5× binding buffer A (Molecular Devices, R7282), 5× binding buffer B (Molecular Devices, R7209); IMAP Beads (Molecular Devices, R7284); and 384-well plates (Corning Costar, 3710).
The reaction buffer was prepared by diluting the 5× stock reaction buffer and adding DTT to obtain a concentration of 3.0 mM. The binding buffer was prepared by diluting the 5× binding buffer A. A master mix solution was prepared using a 90% dilution of the reaction buffer containing 2×ATP (12 uM) and 2× peptide ([…]). […] The final concentration of compound was 2× and 10% DMSO. DMSO was added to the rest of the master mix to increase the concentration to 10%. 10 ul of the master mix containing 10% DMSO was added to the rest of the wells on the plate except the 2nd column. 20 ul was transferred from the first column to the 2nd column. The compounds were serially diluted in 2:1 ratio starting from the 2nd column. A 2× (2 nM) PKCθ solution was made in the reaction buffer. 10 ul of the PKCθ solution was added to every well to achieve these final concentrations: PKCθ—1 nM; ATP—6 uM; peptide—100 nM; DMSO—5%. Samples were incubated for 25 minutes at room temperature. The binding reagent was prepared by diluting the beads in 1× binding buffer to 800:1. 50 ul of the binding reagent was added to every well and incubated for 20 minutes. FP was measured using Envision2100 (PerkinElmer Life Sciences). Wells with no ATPs and wells with no enzymes were used as controls.

T1 sequence (Q04759 whole entry): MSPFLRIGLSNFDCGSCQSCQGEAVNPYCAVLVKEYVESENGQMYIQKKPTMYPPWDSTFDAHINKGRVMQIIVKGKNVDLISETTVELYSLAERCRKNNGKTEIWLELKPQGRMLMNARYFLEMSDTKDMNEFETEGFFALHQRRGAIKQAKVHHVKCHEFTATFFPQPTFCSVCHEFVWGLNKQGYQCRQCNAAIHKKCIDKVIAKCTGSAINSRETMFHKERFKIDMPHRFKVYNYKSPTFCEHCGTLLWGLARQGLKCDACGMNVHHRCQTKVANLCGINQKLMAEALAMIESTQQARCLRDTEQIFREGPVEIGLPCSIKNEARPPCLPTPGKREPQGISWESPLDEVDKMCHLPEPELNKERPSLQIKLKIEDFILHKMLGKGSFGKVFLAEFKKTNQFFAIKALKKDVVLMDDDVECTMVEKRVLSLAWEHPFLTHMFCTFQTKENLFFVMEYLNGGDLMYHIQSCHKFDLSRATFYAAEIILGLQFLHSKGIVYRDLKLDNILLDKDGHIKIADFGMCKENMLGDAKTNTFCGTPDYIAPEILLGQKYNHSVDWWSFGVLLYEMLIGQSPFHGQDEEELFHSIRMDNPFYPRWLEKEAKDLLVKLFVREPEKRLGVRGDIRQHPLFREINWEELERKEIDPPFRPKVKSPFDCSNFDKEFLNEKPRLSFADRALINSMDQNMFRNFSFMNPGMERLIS

Compound | IC50 [nM]
N#Cc1cnc2sc(-c3cccc(CN4CCN(CCn5ccnc5)CC4)c3)cc2c1Nc1ccc2[nH]ccc2c1 [Compound 175, 2-[3-({4-[2-(1H-imidazol-1-yl)ethyl]piperazin-1-yl}methyl)phenyl]-4-(1H-indol-5-ylamino)thieno[2,3-b]pyridine-5-carbonitrile] | 280
N#Cc1cnc2sc(-c3cccc(CN4CCC(CCO)CC4)c3)cc2c1Nc1ccc2[nH]ccc2c1 [Compound 177, 2-(3-{[4-(2-hydroxyethyl)piperidin-1-yl]methyl}phenyl)-4-(1H-indol-5-ylamino)thieno[2,3-b]pyridine-5-carbonitrile] | 170
COCCN1CCN(Cc2cccc(-c3cc4c(Nc5ccc6[nH]ccc6c5)c(C#N)cnc4s3)c2)CC1 [Compound 178, 4-(1H-indol-5-ylamino)-2-(3-{[4-(2-methoxyethyl)piperazin-1-yl]methyl}phenyl)thieno[2,3-b]pyridine-5-carbonitrile] | 300
N#Cc1cnc2sc(-c3cccc(CN4CCN(CCOCCO)CC4)c3)cc2c1Nc1ccc2[nH]ccc2c1 [Compound 181, 2-[3-({4-[2-(2-hydroxyethoxy)ethyl]piperazin-1-yl}methyl)phenyl]-4-(1H-indol-5-ylamino)thieno[2,3-b]pyridine-5-carbonitrile] | 180
CN(C)C(=O)c1cccc(-c2cc3c(Nc4ccc5[nH]ccc5c4)c(C#N)cnc3s2)c1 [Compound 195, 3-[5-cyano-4-(1H-indol-5-ylamino)thieno[2,3-b]pyridine-2-yl]-N,N-dimethylbenzamide] | 420
CN(C)c1cccc(-c2cc3c(Nc4ccc5[nH]ccc5c4)c(C#N)cnc3s2)c1 [Compound 197, 2-[3-(dimethylamino)phenyl]-4-(1H-indol-5-ylamino)thieno[2,3-b]pyridine-5-carbonitrile] | 480
N#Cc1cnc2sc(C#Cc3cnc(N)nc3)cc2c1Nc1ccc2[nH]ccc2c1 [Compound 228, 2-[(2-aminopyrimidin-5-yl)ethynyl]-4-(1H-indol-5-ylamino)thieno[2,3-b]pyridine-5-carbonitrile] | > 1500
CN(C)Cc1ccc(C#Cc2cc3c(Nc4ccc5[nH]ccc5c4)c(C#N)cnc3s2)nc1 [Compound 229, 2-({5-[(dimethylamino)methyl]pyridin-2-yl}ethynyl)-4-(1H-indol-5-ylamino) thieno[2,3-b]pyridine-5-carbonitrile] | 790
CN(C)S(=O)(=O)c1ccc(-c2cc3c(Nc4ccc5[nH]ccc5c4)c(C#N)cnc3s2)cc1 [Compound 231, 4-[5-cyano-4-(1H-indol-5-ylamino)thieno[2,3-b]pyridin-2-yl]-N,N-dimethylbenzenesulfonamide] | 210
N#Cc1cnc2sc(-c3ccc(S(=O)(=O)NCCO)cc3)cc2c1Nc1ccc2[nH]ccc2c1 [Compound 232, 4-[5-cyano-4-(1H-indol-5-ylamino)thieno[2,3-b]pyridin-2-yl]-N-(2-hydroxyethyl)benzenesulfonamide] | 340
N#Cc1cnc2sc(-c3ccc(S(=O)(=O)NC4CCCCC4)cc3)cc2c1Nc1ccc2[nH]ccc2c1 [Compound 233, 4-[5-cyano-4-(1H-indol-5-ylamino)thieno[2,3-b]pyridin-2-yl]-N-cyclohexylbenzenesulfonamide] | 40000
CS(=O)(=O)Nc1ccc(-c2cc3c(Nc4ccc5[nH]ccc5c4)c(C#N)cnc3s2)cc1 [Compound 235, N-{4-[5-cyano-4-(1H-indol-5-ylamino)thieno[2,3-b]pyridin-2-yl]phenyl}methanesulfonamide] | 1200
Cc1c(Nc2c(C#N)cnc3sc(-c4ccccc4S(=O)(=O)N(C)C)cc23)ccc2[nH]ccc12 [Compound 238, 2-{5-cyano-4-[(4-methyl-1H-indol-5-yl)amino]thieno[2,3-b]pyridin-2-yl}-N,N-dimethylbenzenesulfonamide] | 440

The remaining compounds from weak to strong by IC50, led by results:

IC50 [nM] | Compound
170 | N#Cc1cnc2sc(-c3cccc(CN4CCC(O)CC4)c3)cc2c1Nc1ccc2[nH]ccc2c1 [Compound 176, 2-{3-[(4-hydroxypiperidin-1-yl)methyl]phenyl}-4-(1H-indol-5-ylamino) thieno[2,3-b]pyridine-5-carbonitrile]
150 | N#Cc1cnc2sc(-c3cccc(CNCC4CCCO4)c3)cc2c1Nc1ccc2[nH]ccc2c1 (stereo not shown) [Compound 179, 4-(1H-indol-5-ylamino)-2-(3-{[(tetrahydrofuran-2-ylmethyl)amino]methyl}phenyl) thieno[2,3-b] pyridine-5-carbonitrile]
130 | N#Cc1cnc2sc(-c3cccc(CN4CCCCC4CO)c3)cc2c1Nc1ccc2[nH]ccc2c1 (stereo not shown) [Compound 182]
130 | CS(=O)(=O)c1ccc(-c2cc3c(Nc4ccc5[nH]ccc5c4)c(C#N)cnc3s2)cc1 [Compound 234, 4-(1H-indol-5-ylamino)-2-[4-(methylsulfonyl)phenyl]thieno[2,3-b]pyridine-5-carbonitrile]
120 | CN(C)C(=O)c1cccc(-c2cc3c(Nc4cccc5[nH]ccc45)c(C#N)cnc3s2)c1 [Compound 194, 3-[5-cyano-4-(1H-indol-4-ylamino)thieno[2,3-b]pyridine-2-yl]-N,N-dimethylbenzamide]
110 | N#Cc1cnc2sc(-c3cccc(CNCCCN4CCOCC4)c3)cc2c1Nc1ccc2[nH]ccc2c1 [Compound 180, 4-(1H-indol-5-ylamino)-2-(3-{[(3-morpholin-4-ylpropyl)amino]methyl}phenyl)thieno[2,3-b]pyridine-5-carbonitrile]
100 | COc1ccc(C=O)cc1-c1cc2c(Nc3ccc4[nH]ccc4c3)c(C#N)cnc2s1 [Compound 202, 2-(5-formyl-2-methoxyphenyl)-4-(1H-indol-5-ylamino)thieno[2,3-b]pyridine-5-carbonitrile]
84 | CN(C)Cc1cccc(C#Cc2cc3c(Nc4cccc5[nH]ccc45)c(C#N)cnc3s2)n1 [Compound 219, 2-({6-[(dimethylamino)methyl]pyridin-2-yl}ethynyl)-4-(1H-indol-4-ylamino)thieno[2,3-b]pyridine-5-carbonitrile]
79 | N#Cc1cnc2sc(-c3cccc(CNCCOCCO)c3)cc2c1Nc1ccc2[nH]ccc2c1 [Compound 183, 2-[3-({[2-(2-hydroxyethoxy)ethyl]amino}methyl)phenyl]-4-(1H-indol-5-ylamino)thieno[2,3-b]pyridine-5-carbonitrile]
59 | CNS(=O)(=O)c1ccc(-c2cc3c(Nc4ccc5[nH]ccc5c4)c(C#N)cnc3s2)cc1 [Compound 198, 4-[5-cyano-4-(1H-indol-5-ylamino)thieno[2,3-b]pyridin-2-yl]-N-methylbenzenesulfonamide]
53 | N#Cc1cnc2sc(-c3cccc(CO)c3)cc2c1Nc1cccc2[nH]ccc12 [Compound 193, 2-[3-(hydroxymethyl)phenyl]-4-(1H-indol-4-ylamino)thieno[2,3-b]pyridine-5-carbonitrile]
50 | Cc1c(Nc2c(C#N)cnc3sc(-c4cccc(S(=O)(=O)N(C)C)c4)cc23)ccc2[nH]ccc12 [Compound 237, 3-{5-cyano-4-[(4-methyl-1H-indol-5-yl)amino]thieno[2,3-b]pyridin-2-yl}-N,N-dimethylbenzenesulfonamide]
38 | N#Cc1cnc2sc(-c3cccc(CN)c3)cc2c1Nc1ccc2[nH]ccc2c1 [Compound 196, 2-[3-(aminomethyl)phenyl]-4-(1H-indol-5-ylamino)thieno[2,3-b]pyridine-5-carbonitrile]
37 | CN(C)Cc1cc(-c2cc3c(Nc4ccc5[nH]ccc5c4)c(C#N)cnc3s2)cs1 [Compound 212, 2-{5-[(dimethylamino)methyl]-3-thienyl}-4-(1H-indol-5-ylamino)thieno[2,3-b]pyridine-5-carbonitrile]
20 | Cc1c(Nc2c(C#N)cnc3sc(-c4ccc(S(=O)(=O)N(C)C)cc4)cc23)ccc2[nH]ccc12 [Compound 236, 4-{5-cyano-4-[(4-methyl-1H-indol-5-yl)amino]thieno[2,3-b]pyridin-2-yl}-N,N-dimethylbenzenesulfonamide]
16 | Cc1c(Nc2c(C#N)cnc3sc(-c4cccc(C=O)c4)cc23)ccc2[nH]ccc12 [Compound 201, 2-(3-formylphenyl)-4-[(4-methyl-1H-indol-5-yl)amino]thieno[2,3-b]pyridine-5-carbonitrile]
14 | Cc1c(Nc2c(C#N)cnc3sc(C#Cc4cccc(CN(C)C)n4)cc23)ccc2[nH]ccc12 [Compound 220, 2-({6-[(dimethylamino)methyl]pyridin-2-yl}ethynyl)-4-(4-methyl-1H-indol-5-ylamino)thieno[2,3-b]pyridine-5-carbonitrile]
9 | CNS(=O)(=O)c1ccc(-c2cc3c(Nc4ccc5[nH]ccc5c4C)c(C#N)cnc3s2)cc1 [Compound 230, 4-{5-cyano-4-[(4-methyl-1H-indol-5-yl)amino]thieno[2,3-b]pyridin-2-yl}-N-methylbenzenesulfonamide]

From patent publication US20070082880A1 (priority 2005, published 2007)
